Literature values in US20260024640A1, “SYSTEM AND METHOD I[…] COMPUTER FOR THE CONTROL OF […] THROUGH FUZZY CONTROL” (SmartTIVA Inc, priority 2022, published 2026).
Like-named read-outs stand apart in the source and are kept apart here.

What was measured:
[1] = Schnider
[2] = Marsh
[3] = General Model (LBM calculated by weight, age, gender)

CC(C)c1cccc(C(C)C)c1O [Propofol]
V1 ([1]; 70 kg, male, height: 170 cm): 4.27 L | k13 ([1]; 70 kg, male, height: 170 cm): 0.196 min⁻¹ | k21 ([1]; 70 kg, male, height: 170 cm): 0.067 min⁻¹ | keo ([1]; 70 kg, male, height: 170 cm): 0.456 min⁻¹ | V1 [1, 3]: 4.27 L | k13 [1, 3]: 0.196 min⁻¹ | keo [1, 3]: 0.456 min⁻¹ | V1 ([2]; 70 kg): 15.9 L | k21 ([2]; 70 kg): 0.055 min⁻¹ | k31 ([2]; 70 kg): 0.0033 min⁻¹ | keo ([2]; 70 kg): 0.26 min⁻¹ | V1 ([2]; General Model): 0.228 L/kg | k21 ([2]; General Model): 0.055 min⁻¹ | k31 ([2]; General Model): 0.0033 min⁻¹ | keo ([2]; General Model): 0.26 min⁻¹
